This note sets out measurements from paper PMC5851678, “Phosphorylation decelerates conformational dynamics in bacterial translation elongation factors” (Science Advances, 2018).

Read-outs that look alike come from different tables or passages of the source.

Holding throughout (assay): ITC
In general terms: Isothermal titration calorimetry measures the heat released or taken up as one component is titrated into another.

Test [1] addresses T1, EF-Tu.
T1 construct: gene tufA; full-length, His-tagged (pET-His-EF-Tu), expressed in E. coli BL21(DE3), nucleotide-free, unphosphorylated
Set-up: species or system Escherichia coli. Particulars: 50 mM Hepes pH 7.4, 40 mM NH4Cl, 2 mM MgCl2, 1 mM TCEP. From the text: ITC on EF-Tu | consistent with the affinities measured with GDPNP

Test [2] has as its target T2, pEF-TuT382.
T2 construct: gene tufA; full-length His-tagged EF-Tu phosphorylated at T382 in vitro by toxin Doc with ATP, repurified by SEC
Further details: species or system Escherichia coli. Conditions: 50 mM Hepes pH 7.4, 40 mM NH4Cl, 2 mM MgCl2, 1 mM TCEP; phosphorylated at T382.

The target of test [3] is T2, pEF-TuT382. The class given is binding, Escherichia coli. Particulars: 50 mM Hepes pH 7.4, 40 mM NH4Cl, 2 mM MgCl2, 1 mM TCEP, nucleotide-free protein, phosphorylated at T382.
The target of test [4] is T1, EF-Tu. The class given is binding, Escherichia coli. Particulars: 20 °C, 50 mM Hepes pH 7.4, 40 mM NH4Cl, 2 mM MgCl2, 1 mM TCEP, nucleotide-free protein; read-out: affinity.

As for `Nc1nc2c(ncn2[C@@H]2O[C@H](COP(=O)(O)OP(=O)(O)NP(=O)(O)O)[C@@H](O)[C@H]2O)c(=O)[nH]1` [GDPNP, 5′-guanylyl imidodiphosphate], the Kd on EF-Tu [1] was 0.128 ± 0.008 µM; at pEF-TuT382 [2] it was 0.32 ± 0.001 µM.

Turning to `Nc1nc2c(ncn2[C@@H]2O[C@H](COP(=O)(O)OP(=O)(O)O)[C@@H](O)[C@H]2O)c(=O)[nH]1` [GDP], the Kd was 0.0057 µM on pEF-TuT382 [3] (read-out: affinity) and 0.0045 µM on EF-Tu [4].

Turning to `Nc1nc2c(ncn2[C@@H]2O[C@H](COP(=O)(O)OP(=O)(O)OP(O)(O)=S)[C@@H](O)[C@H]2O)c(=O)[nH]1` [GTPγS, guanosine-5′-(γ-thio)-triphosphate], the Kd on pEF-TuT382 [3] (read-out: Kd) amounted to 0.09 µM; at EF-Tu [4], 0.081 µM.
